Measured values: paper PMC8929364, “Metopimazine is primarily metabolized by a liver amidase in humans” (Pharmacology Research & Perspectives, 2021)
“And” between values parts separate entries of the source, which are not always exact repeats. Identical values can stand only once. Like-named read-outs stand apart in the source and are kept apart here.

Columns and labels:
[1] = cited from earlier work
[2] = Incubation of MPZ with pooled human liver microsomes (disappearance, metabolite formation); type: in vitro ADME; settings: for Peak area at time 0 / Peak area at time 90 min: metopimazine incubation in human liver microsomes, full scan LC–MS
Method: To conduct the metabolic incubation in liver microsomes in the linear range, protein concentration and the reaction time were optimized.
PAR was also used for all positive control compounds.
The degree of disappearance of each analyte was evaluated by comparing the PAR of analyte to IS or concentration in different sampling time points to the PAR of time zero, (t = 0, 100%). The percent of parent remaining values were calculated according to the following equation: %parentremaining=(meanconcentrationorPARateachsamplingtimepoint/meanconcentrationorPARoftimezero)×100

[3] = Clinical study NG100-101: plasma pharmacokinetics of metopimazine and metabolites after a single oral 60 mg dose; type: in vivo, healthy adult subjects (human); settings: for % Drug‐related material MPZ / % Drug‐related material MPZA: based on AUClast; for % Drug‐related material MPZ / percent of total circulating drug‐related material / % Drug‐related material MPZA: single 60 mg dose; for Tmax / AUC(0-t) / Cmax: both sexes, human, po, 60 mg; for percent of total circulating drug‐related material: rough estimate based on AUClast
Method: The clinical study was conducted at Biotrial Rennes, in accordance with the Declaration of Helsinki. The study (NG100‐101) was a double‐blind, placebo‐ controlled, ascending single‐ and multiple‐dose study of the safety, tolerability, and pharmacokinetics of metopimazine administered orally to healthy adult subjects. The study protocol, informed consent form, and appropriate related documents were approved by the institutional review board, and all subjects provided written informed consent prior to participation in the study. […] In the morning, after at least 10 h of fasting overnight, eight healthy adult subjects (male or female aged 18 to 45), were orally administered metopimazine (or a matching placebo). […] Blood samples were collected at the following time points: predose and 0.25, 0.5, 0.75, 1, 1.25, 1.5, 2, 3, 4, 6, 8, 12, 18, and 24 h postdose; plasma samples were obtained by centrifugation of the blood samples. A comprehensive safety and pharmacokinetic analysis was performed for each cohort for the SAD and MAD parts of the study and will be presented elsewhere. A fit‐for‐purpose discovery method was used to analyze 4 subjects from the highest single dosed cohort for the presence of metabolites. Plasma concentrations of metopimazine, metopimazine acid and metopimazine sulfoxide were quantified using LC–MS/MS methods. Venous blood samples (6 ml) for the determination of plasma concentrations of MPZ and metabolites (MPZA and MPZS) were drawn by direct venipuncture or via an intravenous catheter into K2EDTA Vacutainer® tubes. It was important to avoid hemolysis during blood collection. After collection, the blood samples were centrifuged within 60 min, at 3000 rotations per minute for 10 min at 5°C. The resulting plasma was separated into 2 equal aliquots of 1000 µl (aliquots A & B) and transferred to polypropylene tubes, which were labeled, frozen within 120 min of blood collection and stored at –70°C until required for bioanalysis. Immediately prior to bioanalysis, samples were thawed and a 200 µl aliquots were removed and analytes extracted using acetonitrile protein precipitation. The extracted samples were analyzed twice, once for quantification of MPZ and MPZA and again for MPZS quantification as described below. An MRM LC–MS/MS method was developed for MPZ and metopimazine acid (MPZA) in rat, dog, and human plasma. The method was run in reverse phase in positive ion mode. […] D6‐isotopically labeled internal standards were used for each analyte. The following m/z transitions were monitored: metopimazine 446.3 → 141.1 and metopimazine acid 447.2 → 142.1. […] An MRM LC–MS/MS method was developed to look for metopimazine sulfoxide (MPZS) in human plasma. The method was run in reverse phase in positive ion mode. The system was identical to what was described above except that a slightly longer column was used, a Supelco Discovery HS F5 100 × 4.0 mm (3 µm) column (Sigma‐Aldrich). A D6‐isotopically labeled internal standards was used for MPS and the m/z transition monitored was 462.3 → 98.1. A calibration curve was generated for the quantification of MPZS in human plasma. Noncompartmental Pharmacokinetics analysis was performed in Phoenix 64 Winnonlin version 8.1.

[4] = Dog PK study, single oral dose of metopimazine; type: in vivo, beagle dogs; settings: beagle, plasma; Dog (male), 10 mg/kg metopimazine single oral dose, mean (SD)
Method: The pharmacokinetics of metopimazine (parent) and metopimazine acid (metabolite) were evaluated in three male, beagle dogs following a single oral dose of 10 mg/kg metopimazine (free base). The dogs were obtained from Marshall BioResources. Animals were weighed prior to each dose administration for the purpose of dose calculation. Metopimazine was administered in size 13 gelatin capsules. Whole venous blood samples of approximately 1.0 ml were collected from a peripheral vein of all animals for determination of metopimazine and metopimazine acid. Samples were collected at the following timepoints: 0.25, 0.5, 1, 2, 4, 8, 12, and 24 h after test article administration. All animals were sampled at each timepoint. Samples were collected in tubes containing K2EDTA and placed on ice until processed for plasma by centrifugation under refrigeration for at least 10 min at 1912 x g. After centrifugation, the supernatant was removed and stored frozen in a −70°C freezer until analyzed by LC–MS/MS.
(§1) An MRM LC–MS/MS method was developed for MPZ and metopimazine acid (MPZA) in rat, dog, and human plasma. The method was run in reverse phase in positive ion mode. […] D6‐isotopically labeled internal standards were used for each analyte. The following m/z transitions were monitored: metopimazine 446.3 → 141.1 and metopimazine acid 447.2 → 142.1.
(§2) Noncompartmental Pharmacokinetics analysis was performed in Phoenix 64 Winnonlin version 8.1.

[5] = Rat PK study, single oral dose of metopimazine; type: in vivo, Sprague Dawley rats; settings: Sprague Dawley, plasma, 45 mg/kg metopimazine single oral dose, mean (SD)
Method: The pharmacokinetics of metopimazine (parent) and metopimazine acid (metabolite) were evaluated in male and female Sprague Dawley rats following a single oral dose of 45 mg/kg metopimazine (free base). Three animals per sex in each dose group were sampled at each timepoint after administration (0.25, 0.5, 1, 2, 4, 8, 12, and 24 h). The rats (rattus norvegicus) were obtained from Envigo RMS, Inc. and were 2 months old. Animals were weighed prior to each dose administration for the purpose of dose calculation. Whole venous blood samples of approximately 0.5 ml were collected from a peripheral vein of animals for determination of exposure to metopimazine and metopimazine acid. Three animals per sex were sampled at each timepoint. Samples were collected in tubes containing K2EDTA with protease inhibitor cocktail (Sigma, # P8340, at ratio 1:100) and placed on ice until processed for plasma by centrifugation under refrigeration for at least 10 min at 1912 x g. After centrifugation, supernatant was removed and stored frozen in a −70°C freezer until analyzed by LC–MS/MS.
as §1, §2

[6] = plasma, individual subjects, single oral 60 mg MPZ dose

**Q.** For `CS(=O)(=O)c1ccc2c(c1)N(CCCN1CCC(C(N)=O)CC1)c1ccccc1S2` [MPZ, metopimazine], which “blood–brain barrier penetration” value [1] is on record?
**A.** Its value is “does not penetrate the blood–brain barrier”.

**Q.** What about the absolute bioavailability ([1]; humans, 10 mg dose of MPZ) of the same molecule?
**A.** Its absolute bioavailability is “under 20%”.

**Q.** And the “percent of parent remaining” value ([2]; 1 µM MPZ, HLM 0.5 mg/ml protein, NADPH, 60 min)?
**A.** Its value is 37.2%.

**Q.** And the “Peak area at time 0” value [2]?
**A.** The value was 2373.

**Q.** What about the “Peak area at time 90 min” value [2] of the same molecule?
**A.** Its value is 715.

**Q.** And the “% Drug‐related material MPZ” value ([3]; individual subjects)?
**A.** The value was 6.5% and 9.9% and 6.2% and 6.8%.

**Q.** What about the “% Drug‐related material MPZ” value ([3]; mean of 4 subjects) of the same molecule?
**A.** The value was 7.4%.

**Q.** What about the Tmax ([3]; plasma, plasma, individual subjects, single oral 60 mg MPZ dose, read-out: MPZ T max) of the same molecule?
**A.** Its Tmax is 3 h.

**Q.** And the AUC(0-t) ([3]; plasma, plasma, mean of 4 subjects, single oral 60 mg MPZ dose, read-out: MPZ AUClast)?
**A.** Its AUC(0-t) is 172 ng·h/mL.

**Q.** And the Cmax ([3]; plasma, plasma, mean of 4 subjects, single oral 60 mg MPZ dose, read-out: MPZ C max)?
**A.** The Cmax was 93.9 ng/mL.

**Q.** And the Tmax ([3]; plasma, plasma, mean of 4 subjects, single oral 60 mg MPZ dose, read-out: MPZ T max)?
**A.** The Tmax was 1.4 h.

**Q.** What about the “MPZ AUClast” value [3, 6] of the same molecule?
**A.** The value was 111.9 ng‐h/ml and 278.2 ng‐h/ml and 129.4 ng‐h/ml and 167.5 ng‐h/ml.

**Q.** And the “MPZ C max” value [3, 6]?
**A.** Its value is 38.9 ng/mL and 203 ng/mL and 75.6 ng/mL and 58.2 ng/mL.

**Q.** And the “MPZ T max” value [3, 6]?
**A.** Its value is 0.75 h and 1 h.

**Q.** And the “percent of total circulating drug‐related material” value [3]?
**A.** The value was “less than 10%”.

**Q.** What about the AUC(0-inf) [4] of the same molecule?
**A.** The AUC(0-inf) was 2600 ng·h/mL.

**Q.** What about the Cmax [4] of the same molecule?
**A.** The Cmax was 416 ng/mL.

**Q.** What about the Tmax [4] of the same molecule?
**A.** Its Tmax is 0.83 h.

**Q.** And the AUC(0-inf) ([5]; Rat (female))?
**A.** Its AUC(0-inf) is 13900 ng·h/mL.

**Q.** And the Cmax ([5]; Rat (female))?
**A.** The Cmax was 1730 ng/mL.

**Q.** And the Tmax ([5]; Rat (female))?
**A.** Its Tmax is 4 h.

**Q.** What about the AUC(0-inf) ([5]; Rat (male)) of the same molecule?
**A.** Its AUC(0-inf) is 8170 ng·h/mL.

**Q.** And the Cmax ([5]; Rat (male))?
**A.** The Cmax was 1080 ng/mL.

**Q.** And the Tmax ([5]; Rat (male))?
**A.** Its Tmax is 4 h.

**Q.** With `CS(=O)(=O)c1ccc2c(c1)N(CCCN1CCC(C(=O)O)CC1)c1ccccc1S2` [MPZA, metopimazine acid] as the molecule, how does the “share of circulating drug‐related material in plasma” value ([1]; clinical doses of 20 and 50 mg MPZ, single dose, preprandially or postprandially) read?
**A.** The value was ≥ 80%.

**Q.** And the “share of circulating drug‐related material based on AUC exposure” value ([1]; humans)?
**A.** Its value is “over 90%”.

**Q.** What about the “Peak area at time 0” value [2] of the same molecule?
**A.** Its value is 0.

**Q.** And the “Peak area at time 90 min” value [2]?
**A.** The value was 208.

**Q.** What about the “% Drug‐related material MPZA” value ([3]; individual subjects) of the same molecule?
**A.** Its value is 93.0% and 89.2% and 93.3% and 92.4%.

**Q.** What about the “% Drug‐related material MPZA” value ([3]; mean of 4 subjects) of the same molecule?
**A.** The value was 92.0%.

**Q.** And the Tmax ([3]; plasma, 4 subjects, single oral 60 mg MPZ dose, read-out: Tmax, range over subjects)?
**A.** The Tmax was 1.25 to 3 h.

**Q.** And the AUC(0-t) ([3]; plasma, plasma, individual subjects, single oral 60 mg MPZ dose, read-out: MPZA AUClast)?
**A.** The AUC(0-t) was 1590 ng·h/mL.

**Q.** What about the AUC(0-t) ([3]; plasma, plasma, mean of 4 subjects, single oral 60 mg MPZ dose, read-out: MPZA AUClast) of the same molecule?
**A.** Its AUC(0-t) is 2080 ng·h/mL.

**Q.** And the Cmax ([3]; plasma, plasma, mean of 4 subjects, single oral 60 mg MPZ dose, read-out: MPZA C max)?
**A.** Its Cmax is 397 ng/mL.

**Q.** What about the Tmax ([3]; plasma, plasma, mean of 4 subjects, single oral 60 mg MPZ dose, read-out: MPZA T max) of the same molecule?
**A.** Its Tmax is 1.8 h.

**Q.** And the “MPZA AUClast” value [3, 6]?
**A.** Its value is 2506.1 ng‐h/ml and 1941.9 ng‐h/ml and 2265.8 ng‐h/ml.

**Q.** What about the “MPZA C max” value [3, 6] of the same molecule?
**A.** The value was 241 ng/mL and 601 ng/mL and 357 ng/mL and 390 ng/mL.

**Q.** And the “MPZA T max” value [3, 6]?
**A.** Its value is 3 h and 1.25 h (2×) and 1.5 h.

**Q.** What about the “percent of total circulating drug‐related material” value [3] of the same molecule?
**A.** The value was “approximately 90%”.

**Q.** What about the AUC(0-inf) [4] of the same molecule?
**A.** Its AUC(0-inf) is 728 ng·h/mL.

**Q.** What about the Cmax [4] of the same molecule?
**A.** The Cmax was 103 ng/mL.

**Q.** What about the Tmax [4] of the same molecule?
**A.** Its Tmax is 2 h.

**Q.** What about the AUC(0-inf) ([5]; Rat (female)) of the same molecule?
**A.** Its AUC(0-inf) is 884 ng·h/mL.

**Q.** What about the Cmax ([5]; Rat (female)) of the same molecule?
**A.** The Cmax was 110 ng/mL.

**Q.** And the Tmax ([5]; Rat (female))?
**A.** Its Tmax is 3 h.

**Q.** What about the AUC(0-inf) ([5]; Rat (male)) of the same molecule?
**A.** The AUC(0-inf) was 755 ng·h/mL.

**Q.** What about the Cmax ([5]; Rat (male)) of the same molecule?
**A.** The Cmax was 89 ng/mL.

**Q.** And the Tmax ([5]; Rat (male))?
**A.** Its Tmax is 4 h.
